# ChEMBL document CHEMBL4339208, “6-Bromoindolglyoxylamido derivatives as antimicrobial agents and antibiotic enhancers” (Bioorg Med Chem, 2019)
# The source made the active and inactive calls. No cut-off for these calls is given here.
# What was measured:
# [1] = test system: Staphylococcus aureus; assay: Antibacterial activity against Staphylococcus aureus ATCC 25923 measured after 18 hrs by broth dilution method; format: functional; settings: ATCC 25923, 18 h
# [2] = test system: Staphylococcus intermedius; assay: Antibacterial activity against Staphylococcus intermedius 1051997 measured after 18 hrs by broth dilution method; format: functional; settings: Staphylococcus intermedius, 1051997, 18 h
# [3] = test system: Escherichia coli; assay: Antibacterial activity against Escherichia coli ATCC 25922 measured after 18 hrs by broth dilution method; format: functional
# [4] = test system: Pseudomonas aeruginosa; assay: Antibacterial activity against Pseudomonas aeruginosa ATCC 27853 measured after 18 hrs by broth dilution method; format: functional
# [5] = test system: Klebsiella pneumoniae; assay: Antibacterial activity against Klebsiella pneumoniae ATCC 700603 measured after 18 hrs by resazurin dye based assay; format: functional
# [6] = test system: Acinetobacter baumannii; assay: Antibacterial activity against Acinetobacter baumannii ATCC 19606 measured after 18 hrs by resazurin dye based assay; format: functional
# [7] = test system: Candida albicans; assay: Antifungal activity against Candida albicans ATCC 90028 measured after 36 hrs; format: functional; settings: ATCC 90028, 36 h
# [8] = test system: Cryptococcus neoformans; assay: Antifungal activity against Cryptococcus neoformans ATCC 208821 measured after 36 hrs by resazurin dye based assay; format: functional; settings: ATCC 208821, 36 h
# [9] = test system: Klebsiella pneumoniae; assay: Antibacterial activity against Klebsiella pneumoniae ATCC 700603 at 32 ug/ml measured after 18 hrs by resazurin dye based assay; format: functional, organism-based
# [10] = test system: Acinetobacter baumannii; assay: Antibacterial activity against Acinetobacter baumannii ATCC 19606 at 32 ug/ml measured after 18 hrs by resazurin dye based assay; format: functional, organism-based; settings: ATCC 19606 = CIP 70.34 = JCM 6841
# [11] = test system: Pseudomonas aeruginosa; assay: Potentiation of doxycycline-induced antibacterial activity against Pseudomonas aeruginosa ATCC 27853 assessed as concentration required to restore 2 ug/ml doxycycline activity measured after 18 hrs; format: functional
# [12] = test system: L6; assay: Cytotoxicity against rat L6 cells measured after 72 hrs by alamar blue assay; format: cell-based; settings: L6, 72 h
# [13] = Cytotoxicity against HEK293 cells measured after 20 hrs by resazurin dye based fluorescence assay; format: cell-based, Homo sapiens; settings: human, HEK293 cells
# [14] = test system: Erythrocyte; assay: Hemolytic activity against human RBC incubated for 10 mins under shaking condition measured after 1 hr; format: ADME, cell-based
# [15] = test system: Erythrocyte; assay: Hemolytic activity against human RBC at 32 ug/ml incubated for 10 mins under shaking condition measured after 1 hr; format: ADME, cell-based
# [16] = test system: Candida albicans; assay: Antifungal activity against Candida albicans ATCC 90028 at 32 ug/ml measured after 36 hrs; format: functional, organism-based
# [17] = test system: Cryptococcus neoformans; assay: Antifungal activity against Cryptococcus neoformans ATCC 208821 at 32 ug/ml measured after 36 hrs by resazurin dye based assay; format: functional, organism-based
# [18] = Klebsiella pneumoniae, 700603, 18 h
# [19] = ATCC 19606 = CIP 70.34 = JCM 6841, 18 h
Molecule,MIC [1] [µM],MIC [2] [µM],"MIC ([3]; ATCC 25922, 18 h) [µM]","MIC ([4]; ATCC 27853, 18 h) [µM]","MIC [5, 18] [µM]","MIC [6, 19] [µM]",MIC [7],MIC [8],Activity [9],Activity [10],Activity [11] [µM],IC50 [12] [µM],CC50 at 20 h [13] [µM],HC10 [14],Activity [16],Activity [17],other results
O=C(NCCCNCCCCCCCCNCCCNC(=O)C(=O)c1c[nH]c2cc(Br)ccc12)C(=O)c1c[nH]c2cc(Br)ccc12.O=C(O)C(F)(F)F.O=C(O)C(F)(F)F,50,12.5,50,6.25,> 32.4,> 32.4,8.11 µM,32.4 µM,inactive,inactive,25,5.6,6.2,> 32 µM,–,–,Activity [15]: Non-Toxic
OC(Cn1cncn1)(Cn1cncn1)c1ccc(F)cc1F [FLUCONAZOLE],–,–,–,–,–,–,0.125 µg/mL,8 µg/mL,–,–,–,–,–,–,–,–,–
O=C(NCCCNCCCCCCCCCCNCCCNC(=O)C(=O)c1c[nH]c2cc(Br)ccc12)C(=O)c1c[nH]c2cc(Br)ccc12.O=C(O)C(F)(F)F.O=C(O)C(F)(F)F,12.3,–,24.6,24.6,31.5,31.5,1.97 µM,< 0.25 µM,–,–,6.16,12.4,6.03,7.88 µM,–,–,–
O=C(NCCCNCCCCCCCCCCCCNCCCNC(=O)C(=O)c1c[nH]c2cc(Br)ccc12)C(=O)c1c[nH]c2cc(Br)ccc12.O=C(O)C(F)(F)F.O=C(O)C(F)(F)F,> 200,–,> 200,> 200,> 32,> 32,7.67 µM,7.67 µM,inactive,inactive,>200,1.6,9.72,2.18 µM,–,–,–
O=C(NCCCCCCCCCCCCNC(=O)C(=O)c1c[nH]c2cc(Br)ccc12)C(=O)c1c[nH]c2cc(Br)ccc12,> 200,100,> 200,> 200,> 46,> 46,> 46 µM,> 46 µM,inactive,inactive,>200,89.1,> 46,–,inactive,inactive,–
O=C(NCCCNCCNC(=O)C(=O)c1c[nH]c2cc(Br)ccc12)C(=O)c1c[nH]c2cc(Br)ccc12,12.5,50,> 200,> 200,> 52,> 52,> 52 µM,> 52 µM,inactive,inactive,>200,89.3,> 52,–,inactive,inactive,–
CN[C@@H]1[C@H](O[C@H]2[C@H](O[C@H]3[C@H](O)[C@@H](O)[C@H](N=C(N)N)[C@@H](O)[C@@H]3N=C(N)N)O[C@@H](C)[C@]2(O)C=O)O[C@@H](CO)[C@H](O)[C@H]1O [STREPTOMYCIN],21.5,10.7,21.5,21.5,–,–,–,–,–,–,–,–,–,–,–,–,–
O=C(NCCN1CCOCC1)C(=O)c1c[nH]c2cc(Br)ccc12,> 200,12.5,> 200,> 200,> 84,> 84,> 84 µM,> 84 µM,inactive,inactive,>200,157,> 84,–,inactive,inactive,–
COLISTIN,–,–,–,–,–,–,–,–,–,–,–,–,–,–,–,–,MIC [3]: 1 µM; MIC [4]: 2 µM; MIC [5]: 0.25 µg/mL; MIC ([6]; ATCC 19606 = CIP 70.34 = JCM 6841): 0.25 µg/mL
O=C(NCCCOCCOCCOCCCNC(=O)C(=O)c1c[nH]c2cc(Br)ccc12)C(=O)c1c[nH]c2cc(Br)ccc12,> 200,12.5,> 200,> 200,> 44,> 44,> 44 µM,> 44 µM,inactive,inactive,>200,75.4,> 44,–,inactive,inactive,–
O=C(NCCCCNC(=O)C(=O)c1c[nH]c2cc(Br)ccc12)C(=O)c1c[nH]c2cc(Br)ccc12,> 200,> 200,> 200,> 200,> 54,> 54,> 54 µM,> 54 µM,inactive,inactive,>200,> 150,> 54,–,inactive,inactive,–
CC[C@H](C)[C@H](NC(=O)CN)C(=O)NCC(=O)N[C@@H](C)C(=O)N[C@H](C(=O)N[C@@H](CC(C)C)C(=O)N[C@@H](CCCCN)C(=O)N[C@H](C(=O)N[C@@H](CC(C)C)C(=O)N[C@H](C(=O)N[C@H](C(=O)NCC(=O)N[C@@H](CC(C)C)C(=O)N1CCC[C@H]1C(=O)N[C@@H](C)C(=O)N[C@@H](CC(C)C)C(=O)N[C@H](C(=O)N[C@@H](CO)C(=O)N[C@@H](Cc1c[nH]c2ccccc12)C(=O)N[C@H](C(=O)N[C@@H](CCCCN)C(=O)N[C@@H](CCCNC(=N)N)C(=O)N[C@@H](CCCCN)C(=O)N[C@@H](CCCNC(=N)N)C(=O)N[C@@H](CCC(N)=O)C(=O)N[C@@H](CCC(N)=O)C(N)=O)[C@@H](C)CC)[C@@H](C)CC)[C@@H](C)O)[C@@H](C)O)C(C)C)C(C)C [MELITTIN],–,–,–,–,–,–,–,–,–,–,–,–,–,2.7 µg/mL,–,–,–
O=C(NCCCNCCCCCCNCCCNC(=O)C(=O)c1c[nH]c2cc(Br)ccc12)C(=O)c1c[nH]c2cc(Br)ccc12.O=C(O)C(F)(F)F.O=C(O)C(F)(F)F,6.5,–,52.2,> 200,> 33.4,> 33.4,8.35 µM,33.4 µM,inactive,inactive,6.52,5.7,17.1,18 µM,–,–,–
CN(C)CCNC(=O)C(=O)c1c[nH]c2cc(Br)ccc12,> 200,12.5,> 200,> 200,> 95,> 95,> 95 µM,> 95 µM,inactive,inactive,>200,99.5,> 95,–,inactive,inactive,–
